From patent publication US10202372B2, “Trisubstituted pyrido[2,3-D]pyrimidines, methods for preparing same and therapeutic uses thereof” (CENTRE NATIONAL DE LA RECHERCHE SCIENTIFIQUE (C.N.R.S), priority 2012, dated 2019)

Legend:
PI3Kα = PI3Kα (Homo sapiens, UniProt P42336); experiment: PI3Kα kinase activity, Adapta TR-FRET ADP detection; assay type: biochemical; settings: purified p110α/p85α heterodimer, triplicate; read-out: Kinases IC50 PI3Kα
Protocol: (§1) The activity of the PI3Kα kinase was evaluated by using a purified heterodimer (reference: PV4788 from Invitrogen) consisting of the α catalytic p110 subunit (PIK3CA) and the α regulation p85 subunit (PIK3R1). The assay of the kinase with the kit Adapta™ (reference: PV5099 from Invitrogen) is an enzymatic test based on the detection of ADP, produced during the reaction, by the fluorescence technique TR-FRET. It took place in a 384-well plate and was able to be divided into two phases: an enzymatic reaction phase, and a phase for detecting the ADP level.
(§2) During the enzymatic reaction phase, the following components were mixed in 10 μL of a same well: 2.5 μL of each dilution in series of inhibitors taken up in DMSO and then diluted to 1/25 in the reaction buffer (250 mM HEPES pH 7.5, 500 mM NaCl, 0.15 CHAPS, 5 mM EGTA, 15 mM MgCl2 and 1 mM DTT, ref.: PV5101 from Invitrogen), 2.5 μL of a solution containing PI3K at the optimum concentration (concentration defined according to the optimization step described in the operating procedure of the kit) diluted in the same reaction buffer, and finally, 5 μL of a solution containing 20 μM ATP and 100 μM PIP2 diluted in the reaction buffer. For each inhibitor concentration, the reaction was conducted in three copies (triplicate). The reaction was then incubated for 60 min at room temperature without any stirring in darkness.
(§3) During the phase for detecting ADP, 5 μL of a detection solution containing an anti-ADP antibody labeled with europium (6 nM), a tracer of the Alexa Fluor® 647 type coupled with ADP (30 nM), and EDTA (30 mM, for stopping the kinase reaction) were diluted in the dilution buffer (reference: PV3574 from Invitrogen). After 30 min of incubation at room temperature with stirring (40 rpm) in darkness, the 384-well plates were read in a plate reader Victor V configured for HTRF (Perkin Elmer). The excitation was produced at 340 nm and emission was measured at 665 nm and 615 nm. The inhibition curve was then plotted according to the emission ratio at 665 nm/615 nm versus the inhibitor concentration.
(§4) In order to obtain a linear response of the signal, a titration curve ATP-ADP, corresponding to the conversion % of ATP into ADP, was achieved by varying both of these species while keeping [ADP]+[ATP]=10 μM. The emission ratio at 665 nm/615 nm resulting from this (Y) was plotted versus the conversion % of ATP into ADP (X). The data of this curve were formatted according to a model with three hyperbolic parameters from the following equation: Y=C+A*(1−(X/(B+X))).
(§5) The software package GraphPad™ Prism® thus allows calculation of the parameters A, B and C. A conversion % corresponds to an emission ratio 665 nm/615 nm, this percentage is calculated by using the following equation: Conversion %=B*(C+A−Ratio)/(Ratio−C)
(§6) The three parameters A, B and C having been defined by the preceding equation, the conversion % was therefore able to be plotted versus the inhibitor concentration. The amount of inhibitor required for causing a 50% variation in the % conversion of ATP into ADP corresponds to the IC50 value of the inhibitor.

PI3Kγ = PI3Kγ (Homo sapiens, UniProt P48736); experiment: PI3Kγ kinase activity, Adapta TR-FRET ADP detection; assay type: biochemical; settings: p110γ catalytic subunit; read-out: Kinases IC50 PI3Kγ
Protocol: as §1, §2, §3, §4, §5, §6
(§7) The activity of the kinase PI3Kγγ (PV4786 from Invitrogen) was evaluated on the p110γγ catalytic subunit (PI3KCG) and that of the kinase PI3Kδδ on the purified heterodimer (PV5273) respectively consisting of the δδ catalytic p110 subunit (PIK3CD) and the α regulation p85 subunit (PIK3R1) by following the same procedure.

PI3Kδ = PI3Kδ (Homo sapiens, UniProt O00329); experiment: PI3Kδ kinase activity, Adapta TR-FRET ADP detection; assay type: biochemical; settings: purified p110δ/p85α heterodimer; read-out: Kinases IC50 PI3Kδ
Protocol: as §1, §2, §3, §4, §5, §6, §7

mTOR = mTOR (Homo sapiens, UniProt P42345); experiment: mTOR kinase activity, LANCE Ultra TR-FRET; assay type: biochemical; settings: truncated mTOR protein, triplicate; read-out: Kinases IC50 mTOR
Protocol: The activity of the mTOR kinase was evaluated by using a purified truncated protein of the amino acids 1-1359 (reference: PV4753 from Invitrogen). The assay of the activity of the enzyme was carried out with the kit LANCE® Ultra which is an enzymatic test based on the detection of a phosphorylated peptide produced during the reaction, by using the fluorescence technique TR-FRET. It took place in a 384-well plate and was able to be divided into two phases: an enzymatic reaction phase and a phase for detecting the phosphorylated peptide.
During the enzymatic reaction phase, the following components were mixed in 10 μL of a same well: 5 μL of each dilution in series of inhibitors taken up in DMSO and then diluted to 1/25 in the reaction buffer (50 mM HEPES pH 7.5, 0.1% Tween-20, 1 mM EGTA, 10 mM MnCl2, 3 mM MgCl2 and 2 mM of DTT), 2.5 μL of a solution containing mTOR at the optimum concentration (concentration defined according to the optimization step described in the operating procedure of the kit) diluted in the same reaction buffer, and finally 2.5 μL of a solution containing 40 μM of ATP and 200 μM non-phosphorylated peptide diluted in the reaction buffer. For each inhibitor concentration, the reaction was conducted in three copies (triplicate). The reaction was then incubated for 120 min at room temperature without any stirring in darkness.
During the phase for detecting the phosphorylated peptide, 5 μL of an EDTA solution (32 mM) diluted in the dilution buffer (ref.: CR97-100 from Perkin Elmer) were injected into each well. After 5 min of incubation with stirring, 5 μL of a phosphorylated anti-peptide antibody solution labeled with europium (8 nM) and diluted in the same dilution buffer was added into each well. After 60 min of incubation at room temperature with stirring (40 rpm) in darkness, the 384-well plates were read in a plate reader Victor V configured for HTRF (Perkin Elmer). […] The inhibition curve was then plotted according to the fluorescence intensity value at 665 nm versus the inhibitor concentration.
The amount of inhibitor required for causing a 50% variation in the intensity of the signal corresponds to the IC50 value of the inhibitor.

HUH7 = experiment: Toxicity test on cells, HUH7; assay type: cell-based; settings: Homo sapiens, Huh-7; 48 hours of treatment, Hoechst nuclei staining
Protocol: (§8) The compounds according to the invention were also tested on the cell lines HuH7, CaCo-2, HCT116, PC3, NCl, HacaT and Fibroblasts.
(§9) Operating Procedure: The cells were cultivated according to the ECACC recommendations. The toxicity test of the compounds on these cells was conducted as follows: 4×10^3 cells/well were sown in 96 wells. 24 hours after sowing the cells, the cells were exposed to increased concentrations of the compounds (0.1 μM-0.3 μM-0.9 μM-2.7 μM-8.3 μM-25 μM). After 48 hours of treatment, the cells were washed in PBS and bound in a cold ethanol/acetic acid (90/5) mixture for 20 minutes. Next, the nuclei were coloured with […] (Sigma). The acquisition of images and the analysis was carried out by means of a reader Cellomics ArrayScan VTI/HCS (Thermo Scientific).

CaCo2 = experiment: Toxicity test on cells, CaCo2; assay type: cell-based; settings: Homo sapiens, Caco-2; 48 hours of treatment, Hoechst nuclei staining
Protocol: as §8, §9

MDA = experiment: Toxicity test on cells, MDA; assay type: cell-based; settings: 48 hours of treatment, Hoechst nuclei staining
Protocol: [The procedure below names another cell line; the source lists this cell line under the same test.] as §8, §9

HCT116 = experiment: Toxicity test on cells, HCT116; assay type: cell-based; settings: Homo sapiens, HCT-116; 48 hours of treatment, Hoechst nuclei staining
Protocol: as §8, §9

PC3 = experiment: Toxicity test on cells, PC3; assay type: cell-based; settings: Homo sapiens, PC-3; 48 hours of treatment, Hoechst nuclei staining
Protocol: as §8, §9

NCl = experiment: Toxicity test on cells, NCl; assay type: cell-based; settings: 48 hours of treatment, Hoechst nuclei staining
Protocol: as §8, §9

Fibroblasts = experiment: Toxicity test on cells, Fibroblasts; assay type: cell-based; settings: Fibroblast; 48 hours of treatment, Hoechst nuclei staining
Protocol: as §8, §9

HacaT = experiment: Toxicity test on cells, HacaT; assay type: cell-based; settings: Homo sapiens, 48 hours of treatment, Hoechst nuclei staining
Protocol: as §8, §9

Chain of PI3Kδ (O00329 whole entry): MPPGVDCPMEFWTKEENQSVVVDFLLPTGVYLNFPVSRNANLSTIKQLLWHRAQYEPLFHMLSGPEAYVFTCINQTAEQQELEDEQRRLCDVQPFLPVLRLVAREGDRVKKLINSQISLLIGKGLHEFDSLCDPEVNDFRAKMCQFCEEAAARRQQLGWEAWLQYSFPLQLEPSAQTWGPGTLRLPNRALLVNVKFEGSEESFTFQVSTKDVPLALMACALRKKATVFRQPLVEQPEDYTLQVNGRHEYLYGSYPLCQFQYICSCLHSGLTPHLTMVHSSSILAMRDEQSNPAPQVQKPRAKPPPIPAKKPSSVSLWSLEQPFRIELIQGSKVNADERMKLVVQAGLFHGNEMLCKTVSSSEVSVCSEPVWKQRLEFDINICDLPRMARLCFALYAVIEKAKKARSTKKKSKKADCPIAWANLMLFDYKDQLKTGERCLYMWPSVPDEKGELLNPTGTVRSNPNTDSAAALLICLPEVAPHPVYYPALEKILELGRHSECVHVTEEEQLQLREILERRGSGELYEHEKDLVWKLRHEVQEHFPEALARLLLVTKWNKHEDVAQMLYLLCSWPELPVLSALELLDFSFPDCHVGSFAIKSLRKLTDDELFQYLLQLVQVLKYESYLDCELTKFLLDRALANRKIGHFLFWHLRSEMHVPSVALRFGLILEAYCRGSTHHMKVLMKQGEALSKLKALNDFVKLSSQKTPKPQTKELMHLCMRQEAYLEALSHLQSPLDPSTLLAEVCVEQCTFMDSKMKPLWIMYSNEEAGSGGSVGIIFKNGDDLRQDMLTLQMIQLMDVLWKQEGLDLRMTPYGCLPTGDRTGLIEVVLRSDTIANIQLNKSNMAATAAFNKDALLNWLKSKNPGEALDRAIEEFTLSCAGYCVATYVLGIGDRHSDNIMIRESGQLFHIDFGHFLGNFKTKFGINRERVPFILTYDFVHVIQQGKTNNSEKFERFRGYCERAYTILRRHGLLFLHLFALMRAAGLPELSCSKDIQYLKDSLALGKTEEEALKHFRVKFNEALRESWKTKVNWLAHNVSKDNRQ
Chain of PI3Kδ (P27986 whole entry partner): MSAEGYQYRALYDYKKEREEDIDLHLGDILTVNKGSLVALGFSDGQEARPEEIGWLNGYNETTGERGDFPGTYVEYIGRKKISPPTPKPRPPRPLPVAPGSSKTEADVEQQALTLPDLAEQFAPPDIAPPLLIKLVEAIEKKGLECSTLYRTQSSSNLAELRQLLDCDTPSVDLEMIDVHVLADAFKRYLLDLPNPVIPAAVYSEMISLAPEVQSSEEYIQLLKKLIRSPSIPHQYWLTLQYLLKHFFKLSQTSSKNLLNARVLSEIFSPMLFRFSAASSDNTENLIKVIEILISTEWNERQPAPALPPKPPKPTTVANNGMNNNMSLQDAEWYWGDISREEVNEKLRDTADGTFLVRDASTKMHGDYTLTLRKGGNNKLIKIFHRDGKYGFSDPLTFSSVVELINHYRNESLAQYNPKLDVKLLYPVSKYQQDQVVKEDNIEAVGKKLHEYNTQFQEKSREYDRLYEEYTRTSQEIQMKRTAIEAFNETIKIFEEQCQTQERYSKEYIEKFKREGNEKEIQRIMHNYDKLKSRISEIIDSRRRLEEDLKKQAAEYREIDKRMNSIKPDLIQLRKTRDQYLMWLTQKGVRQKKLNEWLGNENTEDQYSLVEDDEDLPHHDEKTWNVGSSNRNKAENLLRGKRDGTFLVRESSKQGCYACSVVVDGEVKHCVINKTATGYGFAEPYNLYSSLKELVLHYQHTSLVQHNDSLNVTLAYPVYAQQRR
Chain of mTOR (P42345 1360-2549): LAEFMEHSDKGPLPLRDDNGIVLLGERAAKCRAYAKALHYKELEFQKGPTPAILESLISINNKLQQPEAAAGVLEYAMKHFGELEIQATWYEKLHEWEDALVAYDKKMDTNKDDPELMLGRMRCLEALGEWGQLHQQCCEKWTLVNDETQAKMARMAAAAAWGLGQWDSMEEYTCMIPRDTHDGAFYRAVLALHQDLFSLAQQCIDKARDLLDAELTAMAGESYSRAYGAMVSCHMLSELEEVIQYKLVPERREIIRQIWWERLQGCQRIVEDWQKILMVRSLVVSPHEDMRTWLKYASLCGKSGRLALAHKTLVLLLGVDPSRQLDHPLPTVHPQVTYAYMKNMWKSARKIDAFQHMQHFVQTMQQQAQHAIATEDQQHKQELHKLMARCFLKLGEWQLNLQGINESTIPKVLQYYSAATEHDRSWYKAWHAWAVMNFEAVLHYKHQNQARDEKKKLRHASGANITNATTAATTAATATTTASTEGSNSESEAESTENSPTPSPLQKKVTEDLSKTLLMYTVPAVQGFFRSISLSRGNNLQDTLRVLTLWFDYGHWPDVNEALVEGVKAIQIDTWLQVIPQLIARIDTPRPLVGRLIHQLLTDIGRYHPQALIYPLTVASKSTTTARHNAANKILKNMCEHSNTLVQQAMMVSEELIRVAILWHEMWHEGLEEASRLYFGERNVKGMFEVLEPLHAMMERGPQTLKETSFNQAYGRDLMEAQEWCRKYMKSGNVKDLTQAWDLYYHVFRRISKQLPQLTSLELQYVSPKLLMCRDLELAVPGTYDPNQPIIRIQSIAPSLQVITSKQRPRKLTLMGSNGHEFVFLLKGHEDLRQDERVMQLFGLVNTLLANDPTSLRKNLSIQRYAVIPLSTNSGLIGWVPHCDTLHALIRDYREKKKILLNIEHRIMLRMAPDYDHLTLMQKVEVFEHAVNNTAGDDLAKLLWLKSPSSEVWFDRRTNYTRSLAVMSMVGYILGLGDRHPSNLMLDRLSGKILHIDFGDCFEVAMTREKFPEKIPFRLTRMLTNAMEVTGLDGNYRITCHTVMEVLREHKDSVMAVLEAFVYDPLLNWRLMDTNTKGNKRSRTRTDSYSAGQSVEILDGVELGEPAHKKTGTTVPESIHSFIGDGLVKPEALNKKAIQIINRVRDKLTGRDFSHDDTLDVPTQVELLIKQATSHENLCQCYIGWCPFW
Chain of PI3Kγ (P48736 whole entry): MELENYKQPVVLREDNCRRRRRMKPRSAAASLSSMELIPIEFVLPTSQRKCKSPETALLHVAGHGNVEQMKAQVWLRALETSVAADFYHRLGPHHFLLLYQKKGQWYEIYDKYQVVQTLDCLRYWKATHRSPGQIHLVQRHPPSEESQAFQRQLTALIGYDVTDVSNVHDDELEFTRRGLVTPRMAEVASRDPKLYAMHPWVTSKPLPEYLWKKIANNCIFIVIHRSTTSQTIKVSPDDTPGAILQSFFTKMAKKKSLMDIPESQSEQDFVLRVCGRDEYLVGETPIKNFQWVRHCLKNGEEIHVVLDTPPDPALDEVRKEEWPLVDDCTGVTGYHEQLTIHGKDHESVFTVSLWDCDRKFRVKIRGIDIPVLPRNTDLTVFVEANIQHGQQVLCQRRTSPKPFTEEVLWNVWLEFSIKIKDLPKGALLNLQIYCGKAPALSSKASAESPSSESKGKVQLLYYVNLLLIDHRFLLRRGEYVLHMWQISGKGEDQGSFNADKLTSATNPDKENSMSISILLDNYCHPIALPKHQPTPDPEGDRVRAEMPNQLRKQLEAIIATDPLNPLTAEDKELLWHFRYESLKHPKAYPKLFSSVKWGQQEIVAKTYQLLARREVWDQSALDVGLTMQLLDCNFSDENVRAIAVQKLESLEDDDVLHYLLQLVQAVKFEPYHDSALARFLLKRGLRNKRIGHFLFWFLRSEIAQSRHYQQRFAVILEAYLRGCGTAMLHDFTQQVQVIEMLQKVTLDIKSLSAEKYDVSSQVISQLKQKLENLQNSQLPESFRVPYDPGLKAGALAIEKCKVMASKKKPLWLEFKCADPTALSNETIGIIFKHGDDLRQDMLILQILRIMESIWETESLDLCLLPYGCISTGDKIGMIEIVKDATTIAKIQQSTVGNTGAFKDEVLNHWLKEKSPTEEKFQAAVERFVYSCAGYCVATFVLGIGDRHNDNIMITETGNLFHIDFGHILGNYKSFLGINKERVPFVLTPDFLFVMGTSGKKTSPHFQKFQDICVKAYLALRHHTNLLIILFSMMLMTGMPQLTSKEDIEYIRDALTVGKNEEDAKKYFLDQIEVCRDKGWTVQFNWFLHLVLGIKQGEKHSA

SMILES | IC50 (PI3Kα) [nM] | IC50 (PI3Kγ) [nM] | IC50 (PI3Kδ) [nM] | IC50 (mTOR) [nM] | IC50 (HUH7) [nM] | IC50 (CaCo2) [nM] | IC50 (MDA) [nM] | IC50 (HCT116) [nM] | IC50 (PC3) [nM] | IC50 (NCl) [nM] | IC50 (Fibroblasts) [nM] | IC50 (HacaT) [nM]
OCc1cnc2c(N3CCOCC3)nc(-c3cccc(O)c3)nc2c1 [Compound 34, 3-(7-(hydroxymethyl)-4-morpholinopyrido[3,2-d]pyrimidin-2-yl)phenol] | 366 | 22 | 126 | 350 | 1000 | 1500 | 25000 | 3000 | 5000 | > 25000 | 25000 | 
OCC(O)c1cnc2c(N3CCOCC3)nc(-c3cccc(O)c3)nc2c1 (stereo not drawn) [Compound 22, 1-(2-(3-hydroxyphenyl)-4-morpholinopyrido[3,2-d]pyrimidin-7-yl)ethane-1,2-diol] | 82 | 344 | 41 | 460 | > 25000 | 4000 | 10000 | 5000 | 4000 | > 25000 | > 25000 | 
COCOCc1cn(Cc2cnc3c(N4CCOCC4)nc(-c4cccc(O)c4)nc3c2)nn1 [Compound 59, 3-[7-({4-[(methoxymethoxy)methyl]-1H-1,2,3-triazol-1-yl}methyl)-4-(morpholin-4-yl)pyrido[3,2-d]pyrimidin-2-yl]phenol] | 116 |  |  |  |  |  |  |  |  |  |  | 
CS(=O)(=O)N1CCN(Cc2cnc3c(N4CCOCC4)nc(-c4cccc(O)c4)nc3c2)CC1 [Compound 55, 3-{7-[(4-methanesulfonylpiperazin-1-yl)methyl]-4-(morpholin-4-yl)pyrido[3,2-d]pyrimidin-2-yl}phenol] | 56 |  |  |  |  |  |  |  |  |  |  | 
C=Cc1cnc2c(N3CCOCC3)nc(-c3cccc(CO)c3)nc2c1 [Compound 17, (3-(4-Morpholino-7-vinylpyrido[3,2-d]pyrimidin-2-yl)phenyl)methanol] |  |  |  |  | 15000 | 5000 | > 25000 | 6000 | 25000 | > 25000 | > 25000 | 4000
O=CCCc1cnc2c(N3CCOCC3)nc(-c3cccc(O)c3)nc2c1 [Compound 46] | 57 | 563 | 81 | 1900 |  |  |  |  |  |  |  | 
O=C(O)c1cnc2c(N3CCOCC3)nc(-c3cccc(O)c3)nc2c1 [Compound 42, 2-(3-hydroxyphenyl)-4-morpholinopyrido[3,2-d]pyrimidine-7-carboxylic acid] | 10 | 399 | 63 | 135 |  |  |  |  |  |  |  | 
CN(C)Cc1cn(Cc2cnc3c(N4CCOCC4)nc(-c4cccc(O)c4)nc3c2)nn1 [Compound 58, 3-[7-({4-[(dimethylamino)methyl]-1H-1,2,3-triazol-1-yl}methyl)-4-(morpholin-4-yl)pyrido[3,2-d]pyrimidin-2-yl]phenol] | 38 |  |  |  |  |  |  |  |  |  |  | 
COCc1cn(Cc2cnc3c(N4CCOCC4)nc(-c4ccc(NC(=O)NCC(F)(F)F)cc4)nc3c2)nn1 [Compound 82, 1-[4-(7-{[4-(methoxymethyl)-1H-1,2,3-triazol-1-yl]methyl}-4-(morpholin-4-yl)pyrido[3,2-d]pyrimidin-2-yl)phenyl]-3-(2,2,2-trifluoroethyl)urea] | 18 |  |  |  |  |  |  |  |  |  |  | 
N#CCc1cnc2c(N3CCOCC3)nc(-c3cccc(O)c3)nc2c1 [Compound 41, 2-(2-(3-hydroxyphenyl)-4-morpholinopyrido[3,2-d]pyrimidin-7-yl)acetonitrile] | 51 | 127 | 340 | 820 |  |  |  |  |  |  |  | 
Oc1cccc(-c2nc(N3CCOCC3)c3ncc(Cn4cc(CF)nn4)cc3n2)c1 [Compound 61, 3-(7-{[4-(fluoromethyl)-1H-1,2,3-triazol-1-yl]methyl}-4-(morpholin-4-yl)pyrido[3,2-d]pyrimidin-2-yl)phenol] | 391 |  |  |  |  |  |  |  |  |  |  | 
C=Cc1cnc2c(N3CCOCC3)nc(-c3cccc(O)c3)nc2c1 [Compound 14, 3-(4-morpholino-7-vinylpyrido[3,2-d]pyrimidin-2-yl)phenol] | 98 | 196 | 11 | 109 | 20000 | 1500 | 20000 | 5000 | 20000 | 20000 | > 25000 | 
O=Cc1cnc2c(N3CCOCC3)nc(-c3cccc(O)c3)nc2c1 [Compound 20, 2-(3-hydroxyphenyl)-4-morpholinopyrido[3,2-d]pyrimidine-7-carbaldehyde] | 47 | > 50000 | 10 | 71 | 20000 | 4000 | 20000 | 6000 | 25000 | > 25000 | > 25000 | 
